# Measurements published in patent US8658604B2, “Template-fixed beta-hairpin peptidomimetics with protease inhibitory activity” (Polyphor Ltd, priority 2005, dated 2014).
# Where a SMILES comes first, the peptide text is derived from it.
# Assays:
# Chymase, from human skin = molecular target: T1, Chymase, from human skin (Homo sapiens, UniProt P23946)
# T1 sequence (P23946 22-247): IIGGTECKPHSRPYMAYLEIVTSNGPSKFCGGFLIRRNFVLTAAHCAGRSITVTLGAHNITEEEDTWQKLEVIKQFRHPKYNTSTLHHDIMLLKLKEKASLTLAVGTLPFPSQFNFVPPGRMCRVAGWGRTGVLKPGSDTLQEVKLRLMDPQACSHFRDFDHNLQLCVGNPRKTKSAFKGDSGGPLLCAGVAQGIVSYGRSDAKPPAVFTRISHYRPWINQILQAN
# [1] = molecular target: Urokinase from human urine (Homo sapiens, UniProt P00749)
# [2] = test system: Tryptase, from human lung; experiment: Enzymatic assay, tryptase; settings: at 100 μM
# [3] = molecular target: T2, CathepsinG, from human neutrophils (Homo sapiens, UniProt P08311); experiment: Enzymatic assay, cathepsin G; settings: Cathepsin G IC50
# T2 sequence (P08311 21-244): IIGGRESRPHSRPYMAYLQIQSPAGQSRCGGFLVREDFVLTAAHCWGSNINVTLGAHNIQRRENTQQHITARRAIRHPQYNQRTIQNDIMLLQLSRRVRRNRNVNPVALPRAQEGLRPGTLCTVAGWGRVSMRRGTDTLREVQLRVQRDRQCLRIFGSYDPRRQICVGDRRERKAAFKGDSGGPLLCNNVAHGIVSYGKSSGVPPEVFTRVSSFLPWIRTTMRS
# [4] = molecular target: Trypsin, from human pancreas (Homo sapiens, UniProt P07477)
# [5] = molecular target: Coagulation Factor Xa, from uman plasma (Homo sapiens, UniProt P00742)
# [6] = molecular target: Thrombin, from Human Plasma (Homo sapiens, UniProt P00734)
# HELA cells (Acc57) = experiment: Cytotoxicity assay (MTT reduction), HELA cells; type: cell-based; settings: Hela cells
# In short: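 HeLa cells were grown for 24 h, then exposed to peptides at 12.5, 25 and 50 μM in triplicate for 48 h at 37 °C. MTT reduction was read at 595 nm and growth % calculated relative to time-zero wells. LC50 interpolated by linear trend at −50% growth, GI50 at 50%.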
# [7] = molecular target: T3, Elastase from human neutrophils (Homo sapiens, UniProt P08246); experiment: Enzymatic assay, elastase; settings: Elastase IC50
# T3 sequence (P08246 30-267): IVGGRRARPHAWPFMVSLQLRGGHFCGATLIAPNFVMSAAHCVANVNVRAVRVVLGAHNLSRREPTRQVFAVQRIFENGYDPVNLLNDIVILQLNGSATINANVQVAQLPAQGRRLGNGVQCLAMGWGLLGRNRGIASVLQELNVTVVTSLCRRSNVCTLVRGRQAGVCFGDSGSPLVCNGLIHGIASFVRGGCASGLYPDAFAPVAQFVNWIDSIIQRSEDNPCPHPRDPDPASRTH
# [8] = molecular target: T4, Chymotrypsin, from human pancreas (Homo sapiens, UniProt P17538)
# [9] = type: in vitro ADME; settings: 10 µM
# Procedure: 405 μl of plasma/albumin solution were placed in a polypropylene (PP) tube and spiked with 45 μl of compound from a […] solution B, derived from 135 μl of PBS and 15 μl of 1 mM peptide in PBS, pH 7.4. 150 μl aliquots were transferred into individual wells of the 10 kDa filter plate (Millipore MAPPB 1010 Biomax membrane). For “0 minutes controls”: 270 μl of PBS were placed in a PP tube and 30 μl of stock solution B was added and vortexed. 150 μl of control solution were placed into one well of the filter plate and served as “filtered control”.
# Further 150 μl of control solution were placed directly into a receiver well (reserved for filtrate) and served as “not-filtered control”. The entire plate including evaporation lid was incubated for 60 min at 37° C. Plasma samples (rat plasma: Harlan Sera lab UK, human plasma: Blutspendezentrum Zürich) were centrifuged at least for 2 h at 4300 rpm (3500 g) and 15° C. in order to yield 100 filtrate. For “serum albumin”-samples (freshly prepared human albumin: Sigma A-4327, rat albumin: Sigma A-6272, all at 40 mg/ml concentration in PBS) approximately 1 hour of centrifugation was sufficient. The filtrates in the receiver PP plate were analysed by LC/MS as follower follows: Column: Jupiter C18 (Phenomenex), mobile phases: (A) 0.1% formic acid in water and (B) acetonitrile, gradient: 5%-100% (B) in 2 minutes, electrospray ionization, MRM detection (triple quadrupole). The peak areas were determined and triplicate values were averaged. The binding was expressed in percent of the (filtered and not-filtered time point 0 min) control 1 and 2 by: 100−(100×T60/T0). The average from these values was then calculated.
# [10] = test system: human red blood cells (hRBC); experiment: Hemolysis
# [11] = molecular target: T4, Chymotrypsin, from human pancreas; experiment: Enzymatic assay, chymotrypsin
# [12] = molecular target: T2, CathepsinG, from human neutrophils
# T4 sequence (P17538 19-263): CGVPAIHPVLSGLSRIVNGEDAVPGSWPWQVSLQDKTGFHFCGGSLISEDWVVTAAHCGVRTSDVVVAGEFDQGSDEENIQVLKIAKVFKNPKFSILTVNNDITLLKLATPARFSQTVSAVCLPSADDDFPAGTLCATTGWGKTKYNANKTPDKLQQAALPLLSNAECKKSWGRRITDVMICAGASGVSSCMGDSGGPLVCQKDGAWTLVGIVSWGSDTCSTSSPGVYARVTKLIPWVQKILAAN
# Coagulation Factor Xa, from uman plasma, sequence (P00742 235-488 limits assumed): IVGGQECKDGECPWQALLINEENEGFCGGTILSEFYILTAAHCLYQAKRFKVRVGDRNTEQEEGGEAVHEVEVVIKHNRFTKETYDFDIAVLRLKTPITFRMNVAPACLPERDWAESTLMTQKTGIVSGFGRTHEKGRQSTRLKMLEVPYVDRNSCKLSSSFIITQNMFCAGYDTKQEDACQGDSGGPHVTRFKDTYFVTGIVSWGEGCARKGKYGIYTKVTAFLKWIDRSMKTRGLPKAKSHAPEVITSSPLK
# Coagulation Factor Xa, from uman plasma, sequence (P00742 41-179 limits assumed): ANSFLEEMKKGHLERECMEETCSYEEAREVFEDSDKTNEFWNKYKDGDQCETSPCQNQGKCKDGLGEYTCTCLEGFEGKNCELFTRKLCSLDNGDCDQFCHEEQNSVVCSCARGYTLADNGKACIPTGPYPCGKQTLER
IC50 [11] [nM],Cathepsin G at 100 μM % [12] [at 100%],Compound,"Chymase at 100 μM % (Chymase, from human skin) [%]",Urokinase at 100 μM % [1] [%],Tryptase at 100 μM % [2] [%],IC50 [3] [nM],Trypsin at 100 μM % [4] [%],FXa at 100 μM % [5] [%],Thrombin at 100 μM % [6] [%],Cytotoxicity LC50/GI50 Hela cells (HELA cells (Acc57)) [µM],IC50 [7] [µM],Chymotrypsin at 100 μM % [8] [%],Stability human Plasma t1/2 [9] [min],Stability rat Plasma t1/2 [9] [min],Hemolysis at 100 μM % [10] [%]
–,–,"CC[C@H](C)[C@@H]1NC(=O)[C@@H]2CCCN2C(=O)[C@@H]2CCCN2C(=O)[C@H](CC(=O)O)NC(=O)[C@H](CO)NC(=O)[C@H](CCCCN)NC(=O)[C@H]([C@@H](C)O)NC(=O)[C@@H]2CSSC[C@H](NC1=O)C(=O)N[C@@H](CCCNC(=N)N)C(=O)N1CCC[C@@H]1C(=O)N1CCC[C@H]1C(=O)N[C@@H](C1CCCCC1)C(=O)N2 [Ex. 12] (HELM PEPTIDE1{[O=C([C@@H](N[*:1])C1CCCCC1)[*:2]].C.T.K.S.D.P.P.I.C.R.[dP].P}$PEPTIDE1,PEPTIDE1,2:R3-10:R3|PEPTIDE1,PEPTIDE1,1:R1-13:R2$$$V2.0)",12,12,59.3,90,97,5,11,59.3,37,28,–,–,–
–,–,"CCCC[C@@H]1NC(=O)[C@H]([C@@H](C)O)NC(=O)[C@@H]2CSSC[C@H](NC(=O)[C@H]([C@@H](C)CC)NC(=O)[C@@H]3CCCN3C(=O)[C@@H]3CCCN3C(=O)[C@H](CC(=O)O)NC(=O)[C@H](CO)NC1=O)C(=O)N[C@@H](CCCNC(=N)N)C(=O)N1CCC[C@@H]1C(=O)N1CCC[C@H]1C(=O)N[C@@H]([C@@H](C)CC)C(=O)N2 [Ex. 22] (HELM PEPTIDE1{I.C.T.[Nle].S.D.P.P.I.C.R.[dP].P}$PEPTIDE1,PEPTIDE1,2:R3-10:R3|PEPTIDE1,PEPTIDE1,1:R1-13:R2$$$V2.0)",98.8,5.7,3.8,55,84.,–,–,8,> 100,0,300,300,0
13.8,54.1,"CCCC[C@@H]1NC(=O)[C@@H]2CCCN2C(=O)[C@H]2CCCN2C(=O)[C@H](Cc2ccc(O)cc2)NC(=O)[C@H]([C@@H](C)O)NC(=O)[C@H](CCC(N)=O)NC(=O)[C@@H]2CCCN2C(=O)[C@@H]2CCCN2C(=O)[C@H]([C@@H](C)CC)NC(=O)[C@H](CO)NC(=O)[C@H](C)NC(=O)[C@H]([C@@H](C)O)NC(=O)[C@H](CCC(N)=O)NC1=O [Ex. 109] (HELM PEPTIDE1{[Nle].Q.T.A.S.I.P.P.Q.T.Y.[dP].P}$PEPTIDE1,PEPTIDE1,1:R1-13:R2$$$V2.0)",0.1,–,–,–,0,5.6,0,–,0.033,–,–,–,–
